# Earlier results as cited in patent publication US10898452B2, “Stable formulation for parenteral administration of Tapentadol” (Gruenenthal GmbH, priority 2016, dated 2021).
# Settings: more pronounced at higher pH values
smiles,measurement,value
"CC[C@@H](c1cccc(O)c1)[C@@H](C)CN(C)C [Tapentadol, (1R,2R)-3-(3-dimethylamino-1-ethyl-2-methyl-propyl)-phenol]",antimicrobial properties,exhibits antimicrobial properties
